# Reference: article PMC7830757, “An Anti-Inflammatory 2,4-Cyclized-3,4-Secospongian Diterpenoid and Furanoterpene-Related Metabolites of a Marine Sponge Spongia sp. from the Red Sea” (Marine Drugs, 2021)
# Test system: fMLF/CB-induced human neutrophils (superoxide anion generation)
# Test: Superoxide anion generation in fMLF/CB-induced human neutrophils
# Format: cell-based
# Details: Homo sapiens, Neutrophil; percentage of inhibition at 10 μM; mean ± SEM (n ≥ 3); read-out: Superoxide Anion Inh %
# Experimental: (§1) Human neutrophils were isolated from the blood of healthy adult volunteers and enriched by using dextran sedimentation, Ficoll–Hypaque gradient centrifugation, and hypotonic lysis, as described previously. Then, neutrophils were incubated in Ca^2+-free HBSS buffer (pH 7.4, ice-cold).
# Neutrophils (6 × 10^5 cells/mL) incubated (with 0.6 mg/mL ferricytochrome c and 1 mM Ca^2+) in HBSS at 37 °C were treated with DMSO (as control) or tested compound for 5 min. Neutrophils were primed by 1 μg/mL cytochalasin B (CB) for 3 min before being activated by 100 nM fMLF for 10 min. The change of superoxide anion generation was spectrophotomically measured at 550 nm (U-3010, Hitachi, Tokyo, Japan). LY294002 [2-(4-morpholinyl)-8-phenyl-1(4H)-benzopyran- 4-one] was used as a positive control.
row,Structure (SMILES),inhibition at 10 µM [%]
1,"CC12CCC3C(C)(C1CCc1cocc12)C(O)C1(O)C(=O)OCC31C (centres unmarked) [Compound 1, 17-dehydroxysponalactone]",91.4
2,"C/C(=C\CCc1ccoc1)CCC(=O)O [Compound 2, (E)-7-(furan-3-yl)-4-methylhept-4-enoic acid]",3.47
3,"C/C(=C\CC(=O)NO)CCCc1ccoc1 [Compound 3, spongiafuranohydroxamic acid A]",8.85
4,"CC(=CCCc1ccoc1)CCC=C(C)CCC(O)C1(C)CCC(=O)O1 (stereo not drawn) [Compound 4, 16-epi-irciformonin G]",2.61
5,"C/C(=C\CCc1ccoc1)CCC(=O)N[C@H]1CCOC1=O [Compound 5, (−)-sponalisolide B]",67.1
6,"CC1=C(O)C(=O)CC2(C)C1CCC1(CO)c3cocc3CCC12 (centres unmarked) [Compound 6, 18-nor-3,17-dihydroxyspongia-3,13(16),14-trien-2-one]",9.44
7,"CC(C)CCC[C@@H](C)[C@H]1CC[C@H]2C3=CC(=O)[C@@]4(O)C[C@@H](O)CC[C@]4(C)[C@H]3CC[C@]12C [Compound 7, cholesta-7-ene-3β,5α-diol-6-one]",12.8
8,"O=c1cc(N2CCOCC2)oc2c(-c3ccccc3)cccc12 [LY294002, 2-(4-morpholinyl)-8-phenyl-1(4H)-benzopyran-4-one, reference compound]",90.3

# Same assay, conditions: Neutrophil; fMLF/CB-induced human neutrophils; dash per footnote b; read-out: Superoxide Anion IC50 (dash class)
row,Structure (SMILES),IC50 [µM]
1,"C/C(=C\CCc1ccoc1)CCC(=O)O [Compound 2, (E)-7-(furan-3-yl)-4-methylhept-4-enoic acid]",> 10
2,"C/C(=C\CC(=O)NO)CCCc1ccoc1 [Compound 3, spongiafuranohydroxamic acid A]",> 10
3,"CC(=CCCc1ccoc1)CCC=C(C)CCC(O)C1(C)CCC(=O)O1 (stereo not drawn) [Compound 4, 16-epi-irciformonin G]",> 10
4,"CC1=C(O)C(=O)CC2(C)C1CCC1(CO)c3cocc3CCC12 (centres unmarked) [Compound 6, 18-nor-3,17-dihydroxyspongia-3,13(16),14-trien-2-one]",> 10
5,"CC(C)CCC[C@@H](C)[C@H]1CC[C@H]2C3=CC(=O)[C@@]4(O)C[C@@H](O)CC[C@]4(C)[C@H]3CC[C@]12C [Compound 7, cholesta-7-ene-3β,5α-diol-6-one]",> 10

# Same assay, conditions: Neutrophil; fMLF/CB-induced human neutrophils; mean ± SEM (n ≥ 3); read-out: Superoxide Anion IC50
row,Structure (SMILES),IC50 [µM]
1,"CC12CCC3C(C)(C1CCc1cocc12)C(O)C1(O)C(=O)OCC31C (centres unmarked) [Compound 1, 17-dehydroxysponalactone]",3.37
2,"C/C(=C\CCc1ccoc1)CCC(=O)N[C@H]1CCOC1=O [Compound 5, (−)-sponalisolide B]",5.31
3,"O=c1cc(N2CCOCC2)oc2c(-c3ccccc3)cccc12 [LY294002, 2-(4-morpholinyl)-8-phenyl-1(4H)-benzopyran-4-one, reference compound]",1.88

# Test system: fMLF/CB-induced human neutrophils (elastase release)
# Test: Elastase release in fMLF/CB-induced human neutrophils
# Format: cell-based
# Details: Homo sapiens, Neutrophil; percentage of inhibition at 10 μM; mean ± SEM (n ≥ 3); read-out: Elastase Inh %
# Experimental: as §1
# Neutrophils (6 × 10^5 cells/mL) incubated (with 100 μM MeO-Suc-Ala-Ala-Pro-Val-p- nitroanilide and 1 mM Ca^2+) in HBSS at 37 °C were treated with DMSO or the tested compound for 5 min. Neutrophils were, then, activated with fMLF (100 nM)/CB (0.5 μg/mL) for 10 min. The change of elastase release was spectrophotomically measured at 405 nm (U-3010, Hitachi, Tokyo, Japan).
row,Structure (SMILES),inhibition at 10 µM [%]
1,"CC12CCC3C(C)(C1CCc1cocc12)C(O)C1(O)C(=O)OCC31C (centres unmarked) [Compound 1, 17-dehydroxysponalactone]",90.3
2,"C/C(=C\CCc1ccoc1)CCC(=O)O [Compound 2, (E)-7-(furan-3-yl)-4-methylhept-4-enoic acid]",14
3,"C/C(=C\CC(=O)NO)CCCc1ccoc1 [Compound 3, spongiafuranohydroxamic acid A]",18
4,"CC(=CCCc1ccoc1)CCC=C(C)CCC(O)C1(C)CCC(=O)O1 (stereo not drawn) [Compound 4, 16-epi-irciformonin G]",-1.07
5,"C/C(=C\CCc1ccoc1)CCC(=O)N[C@H]1CCOC1=O [Compound 5, (−)-sponalisolide B]",35.2
6,"CC1=C(O)C(=O)CC2(C)C1CCC1(CO)c3cocc3CCC12 (centres unmarked) [Compound 6, 18-nor-3,17-dihydroxyspongia-3,13(16),14-trien-2-one]",19.2
7,"CC(C)CCC[C@@H](C)[C@H]1CC[C@H]2C3=CC(=O)[C@@]4(O)C[C@@H](O)CC[C@]4(C)[C@H]3CC[C@]12C [Compound 7, cholesta-7-ene-3β,5α-diol-6-one]",25.9
8,"O=c1cc(N2CCOCC2)oc2c(-c3ccccc3)cccc12 [LY294002, 2-(4-morpholinyl)-8-phenyl-1(4H)-benzopyran-4-one, reference compound]",77.6

# Same assay, conditions: Neutrophil; fMLF/CB-induced human neutrophils; dash per footnote b; read-out: Elastase IC50 (dash class)
row,Structure (SMILES),IC50 [µM]
1,"C/C(=C\CCc1ccoc1)CCC(=O)O [Compound 2, (E)-7-(furan-3-yl)-4-methylhept-4-enoic acid]",> 10
2,"C/C(=C\CC(=O)NO)CCCc1ccoc1 [Compound 3, spongiafuranohydroxamic acid A]",> 10
3,"CC(=CCCc1ccoc1)CCC=C(C)CCC(O)C1(C)CCC(=O)O1 (stereo not drawn) [Compound 4, 16-epi-irciformonin G]",> 10
4,"C/C(=C\CCc1ccoc1)CCC(=O)N[C@H]1CCOC1=O [Compound 5, (−)-sponalisolide B]",> 10
5,"CC1=C(O)C(=O)CC2(C)C1CCC1(CO)c3cocc3CCC12 (centres unmarked) [Compound 6, 18-nor-3,17-dihydroxyspongia-3,13(16),14-trien-2-one]",> 10
6,"CC(C)CCC[C@@H](C)[C@H]1CC[C@H]2C3=CC(=O)[C@@]4(O)C[C@@H](O)CC[C@]4(C)[C@H]3CC[C@]12C [Compound 7, cholesta-7-ene-3β,5α-diol-6-one]",> 10

# Same assay, conditions: Neutrophil; fMLF/CB-induced human neutrophils; mean ± SEM (n ≥ 3); read-out: Elastase IC50
row,Structure (SMILES),IC50 [µM]
1,"CC12CCC3C(C)(C1CCc1cocc12)C(O)C1(O)C(=O)OCC31C (centres unmarked) [Compound 1, 17-dehydroxysponalactone]",4.07
2,"O=c1cc(N2CCOCC2)oc2c(-c3ccccc3)cccc12 [LY294002, 2-(4-morpholinyl)-8-phenyl-1(4H)-benzopyran-4-one, reference compound]",2.58
